The results in this text go back to ChEMBL document CHEMBL5252586, “2-[(2-Amino-6-methylpyrimidin-4-yl)sulfanyl]-N-arylacetamides: Discovery of a new class of anti-tubercular agents and prospects for their further structural modification” (Bioorg Med Chem Lett, 2023).

Converted amounts (≈) assume the structure as drawn. The source made the active and inactive calls. The calls are words filed in the database; no cut-off is given here.

The first data set deals with Mycobacterium tuberculosis. Put plainly: Antimycobacterial activity against Mycobacterium tuberculosis H37Rv assessed as reduction in bacterial growth.
Conditions: not given
It counts as functional.
As for `NNC(=O)c1ccncc1` [ISONIAZID], the minimum inhibitory concentration (MIC) worked out at 0.1 µg/mL (≈ 0.729 µM). As for `CO[C@H]1/C=C/O[C@@]2(C)Oc3c(C)c(O)c4c(O)c(c(/C=N/N5CCN(C)CC5)c(O)c4c3C2=O)NC(=O)/C(C)=C\C=C\[C@H](C)[C@H](O)[C@@H](C)[C@@H](O)[C@@H](C)[C@H](OC(C)=O)[C@@H]1C` [RIFAMPIN], the MIC was found to be 0.5 µg/mL (≈ 0.608 µM). With `Cc1cc(SCC(=O)Nc2cccc(Cl)c2C)nc(N)n1`, the MIC was determined as 100 µg/mL (≈ 310 µM). In the case of `Cc1cc(SCC(=O)Nc2ccc(C(C)C)cc2)nc(N)n1`, the MIC amounted to 1.5 µg/mL (≈ 4.74 µM). Consider `Cc1cc(SCC(=O)Nc2cc(C(F)(F)F)ccc2Cl)nc(N)n1`, for which the MIC amounted to 25 µg/mL (≈ 66.3 µM).

Turning to `Cc1cc(SCC(=O)Nc2cc(Cl)ccc2Cl)nc(N)n1`, the MIC came to 1.5 µg/mL (≈ 4.37 µM). Regarding `Cc1ccc(NC(=O)CSc2cc(C)nc(N)n2)c(C)c1`, the MIC turned out to be 100 µg/mL (≈ 331 µM). As for `Cc1cc(SCC(=O)Nc2ccccc2)nc(N)n1`, the minimum inhibitory concentration (MIC) was determined as 100 µg/mL (≈ 364 µM). As to `Cc1cc(SCC(=O)Nc2ccc(F)cc2)nc(N)n1`, the MIC turned out to be 100 µg/mL (≈ 342 µM).

Consider `CC[C@@H](CO)NCCN[C@@H](CC)CO` [ETHAMBUTOL], for which the MIC stood at 5 µg/mL (≈ 24.5 µM).

For the next data set, the system named is Mycobacterium tuberculosis. Put plainly: Antimycobacterial activity against Mycobacterium tuberculosis H37Rv assessed as reduction in bacterial growth at 100 microg/ml. The data set is classed as functional, organism-based. The conditions noted are these: dose 100.0 µg/ml.
Turning to `Cc1ccc(NC(=O)CSc2cc(C)nc(N)n2)cc1`, the result was inactive.

Tested on in the next data set: not listed separately
The data set can be described thus: Solubility of compound. The data set is classed as physicochemical.
Conditions: not given
For `Cc1cc(=O)[nH]c(N)n1`, the solubility entry is recorded as “Soluble”.
